The structures appear in SMILES notation.

For the molecule `O=c1oc2cc3c(cc2cc1-c1cn2cc(Cl)ccc2n1)CCCN3CCF` [Example 2, 3-(6-Chloro-imidazo[1,2-a]pyridin-2-yl)-8-(2-fluoro-ethyl)-5,6,7,8-tetrahydro-1-oxa-8-aza-anthracen-2-one], the melting point is 290 °C (dec.).

For the origin of these results see patent publication US7569337B2, “Coumarines useful as biomarkers” (Novartis AG, priority 2002, dated 2009).
